Columns and labels:
[1] = Discharge in vitro of cyanine compound (urethra catheter, liquid chromatograph); set-up: species or system mouse; conditions: sum of discharge over one week after dosage; relative value, amount in vivo after dosage = 100
Description: Discharge in vitro of a cyanine compound of contrast medium material was determined by fitting a urethra with a catheter and summing up the discharge over one week after the dosage, and represented by a relative value, based on the amount in vivo of the cyanine compound after the dosage thereof being 100. The discharge of a cyanine compound was determined using liquid chromatograph 2010 (available from Shimazu Corporation).

[2] = Water-solubility test of compound in normal saline solution; type: physicochemical; conditions: saline or isotonic, thermodynamic from solid, 0.5 mg in 1 ml normal saline solution, 42° C., precipitation or deposits
Description: In 1 ml of normal saline solution of an official grade was dissolved 0.5 mg of a dye (i.e., the cyanine compound to be tested) to make a solution.

[3] = tested on: tumor tissue of breast cancer mouse implanted in BALB/c nude mouse; assay: Fluorescent contrast imaging test in tumor-implanted nude mice; type: in vivo; set-up: key: A: fluorescence was clearly observed in the tumor portion; B: fluorescence was also observed in the normal portion but the tumor portion was discernible; C: the normal portion and the tumor portion emitted slight fluorescence but the tumor portion was barely discernible; D: slight fluorescence was emitted overall and the tumor portion was not discernible from the normal portion; E: no fluorescence was observed; conditions: 3 mg/kg through lactiferous duct and adenoid lobe; whole-body fluorescent imaging 30 min., 12 hr. and 24 hr. after dosage; fluorescence of tumor portion
Description: Model mice having breast cancer were prepared by dosing a carcinogene, 7,12-dimethylbenz[a]anthracene (DMBA) to an acceleratedly aged mice, SAMP6/Ta type mouse as one system of a so-called SAM type to cause breast cancer. Carcinogenesis was carried out in accordance with the description of JP-A No. 2003-033125. To each of 20 SAMP6/Ta type mice, DMBA was dosed in an amount of 0.5 mg/mouse·week, a total of six times. Solid high-protein, high-calorie CA-1 (available from CLEA Japan Inc.) was fed to the mice. After completion of the 6th dose of the carcinogenic substance, the dosage was stopped until the 20th month calculated from the 1st month. Breast cancer and lung metastasis were examined in the manner of pathologic histology.
A segment (2 mm×2 mm square) of tumor tissue of the foregoing breast cancer mouse was implanted below the skin of the breast in the left chest of a BALB/c nude mouse (5 weeks old, CLEA Japan Inc.). After 10 days, when the tumor has grown up to a diameter of approximately 5 mm, the foregoing mice were subjected to the fluorescent contrast imaging test. A titanium/sapphire laser was used as an exciting light source. The test mice in a darkened box were uniformly exposed to laser light using a ring-type light guide (available from Sumita Optical Glass Inc.) so that the dispersion of exposure fell within 2%. The irradiation output was adjusted so as to be about 38 μW/cm^2 near the skin surface of the mice. Fluorescence was emitted by excitation at the absorption peak wavelength of the respective compounds and fluorescent radiation from the mice was subjected to detection and imaging by using a CCD camera (C4880, produced by Hamamatsu Photonics K.K.) together with a filter to cut reflection of incident light at the shorter wavelength side. The exposure time was adjusted in accordance with the fluorescence intensity of the respective compounds. As to the tumor portion, the image obtained by attaching a marker onto the skin surface and observing it under white light was superposed onto the image obtained by removing the marker, followed by exposure to a laser light in the dark and evaluation was made with respect to fluorescence emitted from the tumor portion.
Each of the test compounds shown in Table 1 was dissolved in a normal saline solution (at 0.5 mg/ml) and dosed to the mice through a lactiferous duct and an adenoid lobe. The dose was 3 mg/kg for the respective test compounds. […]

| SMILES | Discharge in vitro (%) [1] | solubility at 1 week [2] | Contrast Imaging [3] |
| --- | --- | --- | --- |
| CC12CCC(/C=C/C=C/C=C3\CCC4(C)C3=[N+](CC(O)CS(=O)(=O)[O-])c3cccnc34)=C1N(CC(O)CS(=O)(=O)O)c1cccnc12 (stereo not drawn) [Compound 12] | 99.0% | > 500 µg/mL | A |
| CC12CCC(/C=C/C=C/C3=CC(=C4\CCC5(C)C4=[N+](CC(O)CS(=O)(=O)O)c4ccc(S(=O)(=O)[O-])cc45)/CCC3)=C1N(CC(O)CS(=O)(=O)O)c1ccc(S(=O)(=O)O)cc12 (stereo not drawn) [Compound 37] | 99.0% | > 500 µg/mL | A |
| CC1(C)C(/C=C/C=C/C=C/C=C2/N(CCCCS(=O)(=O)[O-])c3ccc4ccccc4c3C2(C)C)=[N+](CCCCS(=O)(=O)[O-])c2ccc3ccccc3c21.[Na+] [Compound C-1, indoaniline green] | 99.0% | < 500 µg/mL | C |
| CC1(C)C(/C=C/C=C/C=C/C=C2/N(CCCCS(=O)(=O)O)c3ccc4cc(S(=O)(=O)O)cc(S(=O)(=O)[O-])c4c3C2(C)C)=[N+](CCCCS(=O)(=O)O)c2ccc3cc(S(=O)(=O)O)cc(S(=O)(=O)O)c3c21 [Compound C-2] | 97.0% | > 500 µg/mL | B |

— patent US7682602B2, “Near-infrared fluorescent contrast medium” (Konica Minolta Medical & Graphic, Inc., priority 2003, dated 2010)
